Test results: ChEMBL document CHEMBL5729293, “Inhibitors of KEAP1-Nrf2 protein-protein interaction” (2022)

Experiment: Fluorescence Based Assay: The details of the KEAP1 KELCH ThermoFluor® Assay Construct are as follows: Kelch domain of human KEAP 1 (321-624 aa) was used in the assay. The protein was expressed in E. coli with 6His tag that was cleaved prior to receipt for use.ThermoFluor® experiments were carried out using instruments owned by Janssen Research and Discovery, L.L.C. through its acquisition of 3-Dimensional Pharmaceuticals, Inc. 1,8-ANS (Invitrogen) was used as a fluorescent dye. Protein (KEAP Kelch) and compound solutions were dispensed into black 384-well polypropylene PCR microplates (Abgene) and overlayed with silicone oil (1 μL, Fluka, type DC 200) to prevent evaporation.Reference wells contained KEAP Kelch without compounds, and the assay conditions were as follows: 1.1 μM (0.037mg/mL) KEAP Kelch, 80 μM 1,8-ANS, 25 mM PIPES, pH 7.0, 100 mM NaCl, 0.002% Tween-20.
With Cc1ccc([C@H](c2ccn3c(C(F)(F)F)nnc3c2C)C(C)(C)C(=O)O)cc1CN1CC2(CCOCC2)Oc2nc(OCC(=O)NCCO)ccc2S1(=O)=O the Kd was < 1 nM. For Cc1ccc([C@H](c2ccn3c(C(F)(F)F)nnc3c2C)C(C)(C)C(=O)O)cc1CN1CC2(CCOCC2)Oc2nc(OCCN3CCNCC3)ccc2S1(=O)=O, the Kd was < 1 nM. In the case of CCn1nnc2c(C)c(C(c3cnc(C)c(CN4CC5(CCOCC5)Oc5ncc(C)cc5S4(=O)=O)c3)C(C)(C)C(=O)O)ccc21 (stereo not given), the Kd is reported as < 1 nM. For Cc1ccc([C@@H](c2ccn3c(C(F)(F)F)nnc3c2C)C(C)(C)C(=O)O)cc1CN1CC2(CCOCC2)Oc2nc(OCCN3CCCC3)c(C)cc2S1(=O)=O, the Kd was < 1 nM. For Cc1cnc2c(c1)S(=O)(=O)N(Cc1cc([C@@H](c3ccn4c(C(F)(F)F)nnc4c3C)C(C)(C)C(=O)O)ccc1C)CC1(COC1)O2, the Kd was < 1 nM. With Cc1cc2cc(C(CC(=O)O)c3ccc(C)c(CN4C[C@H]5CCCCN5c5ncccc5S4(=O)=O)c3)n(C)c2nn1 (stereo not given in full) the Kd was < 1 nM. In the case of Cc1ccc([C@H](CC(=O)O)c2ccc3c(nnn3CC3CC3)c2C)cc1CN1C[C@H]2CCCN2c2ncccc2S1(=O)=O, the Kd is reported as < 1 nM. In the case of Cc1ncc([C@@H](c2ccn3c(C(F)(F)F)nnc3c2C)C(C)(C)C(=O)O)cc1CN1C[C@@H]2CCCCN2c2ncc(C#N)cc2S1(=O)=O, the Kd is reported as < 1 nM. With Cc1cnc2c(c1)S(=O)(=O)N(Cc1nc([C@@H](c3ccn4c(C(F)F)nnc4c3C)C(C)(C)C(=O)O)ccc1C)CC1(CC1)O2 the Kd was < 1 nM. In the case of Cc1ccc([C@@H](CC(=O)O)c2ccn3c(C(F)(F)F)nnc3c2C)nc1CN1CC2(COC2)Oc2ccccc2S1(=O)=O, the Kd is reported as < 1 nM. With Cc1cnc(C(c2ccn3c(C(F)(F)F)nnc3c2C)C(C)(C)C(=O)O)cc1CN1CC2(CCOCC2)Oc2ncccc2S1(=O)=O (stereo not given) the Kd was < 1 nM. For Cc1ccc(C(c2ccc3c(nnn3CC3CC3)c2C)C(C)(C)C(=O)O)nc1CN1CC2(CCOCC2)Oc2nc(OCCN3CCOCC3)ccc2S1(=O)=O (stereo not given), the Kd was < 1 nM. For CCn1nnc2c(C)c([C@@H](CC(=O)O)c3ccc(C)c(CN4C[C@H]5CCCN5c5ncccc5S4(=O)=O)n3)ccc21, the Kd was < 1 nM. In the case of Cc1ccc([C@@H](c2ccn3c(C(F)(F)F)nnc3c2C)C(C)(C)C(=O)O)cc1CN1CC2(CCOCC2)Oc2nc(OCCN3CCOCC3)ccc2S1(=O)=O, the Kd is reported as < 1 nM. With Cc1ccc([C@@H](CC(=O)O)c2ccn3c(C(F)F)nnc3c2C)cc1CN1CC2(COC2)Oc2ncccc2S1(=O)=O the Kd was < 1 nM. In the case of Cc1ccc([C@@H](c2ccn3c(C(F)(F)F)nnc3c2C)C(C)(C)C(=O)O)cc1CN1CC2(CCOCC2)Oc2nc(NCCCO)ccc2S1(=O)=O, the Kd is reported as < 1 nM. In the case of Cc1ccc([C@H](c2ccn3c(C(F)(F)F)nnc3c2C)C(C)(C)C(=O)O)cc1CN1CC2(CCOCC2)Oc2nc(NC3CC(O)C3)c(C)cc2S1(=O)=O (stereo not given in full), the Kd is reported as < 1 nM. With Cc1ccc([C@@H](CC(=O)O)c2ccc3c(nnn3CC3CC3)c2C(F)F)cc1CN1C[C@H]2CCCCN2c2ncccc2S1(=O)=O (single isomer, unassigned) the Kd was < 1 nM. For Cc1ccc([C@@H](c2ccc3c(nnn3C3CC3)c2C)C(C)(C)C(=O)O)cc1CN1CC2(CC2)Oc2nc(N[C@@H](C)CN3CCCCC3)c(C)cc2S1(=O)=O, the Kd was < 1 nM. With Cc1ccc([C@@H](c2ccn3c(C(F)(F)F)nnc3c2C)C(C)(C)C(=O)O)cc1CN1CC2(COC2)Oc2ncccc2S1(=O)=O the Kd was < 1 nM. With Cc1ccc([C@H](CC(=O)O)c2ccn3c(C(F)F)nnc3c2C)cc1CN1C[C@H]2CCCN2c2ncc(C#N)cc2S1(=O)=O the Kd was < 1 nM. With Cc1ccc([C@@H](CC(=O)O)c2ccn3c(C(F)F)nnc3c2C)cc1CN1C[C@@H]2CCCN2c2ncc(C#N)cc2S1(=O)=O the Kd was < 1 nM. In the case of Cc1ccc([C@H](CC(=O)O)c2ccn3c(C(F)(F)F)nnc3c2C)cc1CN1CC2(CC2)Oc2nc(NCCCO)ccc2S1(=O)=O, the Kd is reported as < 1 nM. With Cc1ccc(C(CC(=O)O)c2cc(OC(F)F)c3c(c2)nnn3C)cc1CN1C[C@H]2CCCN2c2ncccc2S1(=O)=O (stereo not given in full) the Kd was < 1 nM. With Cc1ccc([C@H](c2ccn3c(C(F)(F)F)nnc3c2C)C(C)(C)C(=O)O)cc1CN1CC2(CCOCC2)Oc2nc(N[C@H](C)CN3CCCCC3)c(C)cc2S1(=O)=O the Kd was < 1 nM. In the case of Cc1ccc([C@@H](CC(=O)O)c2ccn3c(C(F)(F)F)nnc3c2C)nc1CN1CC2(CC2)Oc2ncc(F)cc2S1(=O)=O, the Kd is reported as < 1 nM. With Cc1ccc([C@@H](c2ccn3c(C(F)(F)F)nnc3c2C)C(C)(C)C(=O)O)cc1CN1CC2(CCOCC2)Oc2ncccc2S1(=O)=O the Kd was < 1 nM. In the case of Cc1ccc(C(CC(=O)O)c2ccn3c(C(F)F)nnc3c2C)cc1CN1C[C@H]2CCCN2c2ncc(C#N)cc2S1(=O)=O (stereo not given in full), the Kd is reported as < 1 nM. With Cc1ncc([C@H](c2ccn3c(C(F)(F)F)nnc3c2C)C(C)(C)C(=O)O)cc1CN1C[C@@H]2CCCCN2c2ncc(C#N)cc2S1(=O)=O the Kd was < 1 nM. In the case of Cc1ccc([C@H](CC(=O)O)c2ccc3c(nnn3CC3CC3)c2C)cc1CN1C[C@@H]2CCCCN2c2ncccc2S1(=O)=O, the Kd is reported as < 1 nM. With Cc1cnc2c(c1)S(=O)(=O)N(Cc1cc([C@H](c3ccn4c(C(F)(F)F)nnc4c3)C(C)(C)C(=O)O)ccc1C)CC1(CC1)O2 the Kd was < 1 nM. In the case of Cc1cnc2c(c1)S(=O)(=O)N(Cc1cc([C@H](CC(=O)O)c3ccn4c(C(F)(F)F)nnc4c3C)ccc1C)CC1(CCOCC1)O2, the Kd is reported as < 1 nM. With Cc1ccc([C@H](c2ccn3c(C(F)(F)F)nnc3c2C)C(C)(C)C(=O)O)cc1CN1CC2(CCOCC2)Oc2nc(N[C@@H](C)CN3CCCC3)c(C)cc2S1(=O)=O the Kd was < 1 nM. In the case of Cc1ccc(C(CC(=O)O)c2cc(OC3CC3)c3c(c2)nnn3C)cc1CN1C[C@H]2CCCCN2c2ncccc2S1(=O)=O (stereo not given in full), the Kd is reported as < 1 nM. For Cc1ccc(C(CC(=O)O)c2ccn3c(C(F)(F)F)nnc3c2C)nc1CN1CC2CCCCN2c2ncc(Cl)cc2S1(=O)=O (stereo not given), the Kd was < 1 nM. With Cc1ccc(C(CC(=O)O)c2ccn3c(C(F)(F)F)nnc3c2C)cc1CN1C[C@H]2CCCN2c2ccccc2S1(=O)=O (stereo not given in full) the Kd was < 1 nM. In the case of Cc1ccc([C@H](c2ccn3c(C(F)(F)F)nnc3c2C)C(C)(C)C(=O)O)cc1CN1CC2(CCOCC2)Oc2nc(OCCCOCCCO)ccc2S1(=O)=O, the Kd is reported as < 1 nM. With CCn1nnc2c(C)c([C@H](c3cc(CN4CC5(CC5)Oc5ncc(C)cc5S4(=O)=O)c(C)cn3)C(C)(C)C(=O)O)ccc21 the Kd was < 1 nM. With Cc1ccc([C@@H](CC(=O)O)c2ccn3c(C(F)(F)F)nnc3c2C)cc1CN1C[C@H]2CCCN2c2ncccc2S1(=O)=O the Kd was < 1 nM. In the case of CCn1nnc2c(C)c([C@@H](c3cnc(C)c(CN4CC5(CCOCC5)Oc5ncc(C)cc5S4(=O)=O)c3)C(C)(C)C(=O)O)ccc21, the Kd is reported as < 1 nM. With Cc1ccc([C@H](c2ccn3c(C4CC4)nnc3c2C)C(C)(C)C(=O)O)cc1CN1CC2(COC2)Oc2ncccc2S1(=O)=O the Kd was < 1 nM. For Cc1ccc([C@H](CC(=O)O)c2ccn3c(C(F)F)nnc3c2C)cc1CN1CC2(CCOCC2)Oc2ncc(F)cc2S1(=O)=O, the Kd was < 1 nM. With Cc1ccc([C@H](CC(=O)O)c2ccn3c(C(F)F)nnc3c2C)cc1CN1CC2(COC2)Oc2ncccc2S1(=O)=O the Kd was < 1 nM. In the case of Cc1ccc(C(CC(=O)O)c2ccn3c(C(F)(F)F)nnc3c2C)cc1CN1CC(C)(C)Oc2ncccc2S1(=O)=O (stereo not given), the Kd is reported as < 1 nM. In the case of Cc1ccc([C@H](CC(=O)O)c2ccn3c(C(F)(F)F)nnc3c2C)nc1CN1C[C@@H]2CCCCN2c2ncc(C#N)cc2S1(=O)=O, the Kd is reported as < 1 nM. With Cc1cc2c(nc1OCCN1CCCC1)OC1(CC1)CN(Cc1cc([C@@H](c3ccc4c(nnn4C4CC4)c3C)C(C)(C)C(=O)O)cnc1C)S2(=O)=O the Kd was < 1 nM. With Cc1ccc([C@H](CC(=O)O)c2ccn3c(C(F)(F)F)nnc3c2C)cc1CN1CC2(CC2)Oc2nc(NCCN3CCCCC3)ccc2S1(=O)=O the Kd was < 1 nM. In the case of Cc1ccc([C@@H](CC(=O)O)c2ccn3c(C(F)F)nnc3c2C)cc1CN1CC2(CCOCC2)Oc2ccc(F)cc2S1(=O)=O, the Kd is reported as < 1 nM. For Cc1cnc2c(c1)S(=O)(=O)N(Cc1nc([C@H](CC(=O)O)c3ccn4c(C(F)(F)F)nnc4c3C)ccc1C)C[C@@H]1CCCCN21, the Kd was < 1 nM. In the case of Cc1cnc2c(c1)S(=O)(=O)N(Cc1nc(C(CC(=O)O)c3ccn4c(C(F)(F)F)nnc4c3C)ccc1C)C[C@@H]1CCCCN21 (stereo not given in full), the Kd is reported as < 1 nM. For Cc1cnc2c(c1)S(=O)(=O)N(Cc1cc([C@H](c3cc4cc(C)nnc4n3C)C(C)(C)C(=O)O)ccc1C)CC1(CC1)O2, the Kd was < 1 nM. In the case of CCn1nnc2c(C)c(C(CC(=O)O)c3ccc(C)c(CN4CC5(CCOCC5)Oc5ccc(F)cc5S4(=O)=O)n3)ccc21 (stereo not given), the Kd is reported as < 1 nM. For Cc1ccc([C@@H](CC(=O)O)c2ccn3c(C)nnc3c2)cc1CN1C[C@H]2CCCN2c2ccccc2S1(=O)=O, the Kd was < 1 nM. With Cc1ccc(C(CC(=O)O)c2ccn3c(C(F)F)nnc3c2C)cc1CN1CC2(COC2)Oc2ncccc2S1(=O)=O (stereo not given) the Kd was < 1 nM. With Cc1ccc([C@H](c2ccn3c(C(F)(F)F)nnc3c2C)C(C)(C)C(=O)O)cc1CN1CC(C)(C)Oc2ncccc2S1(=O)=O the Kd was < 1 nM. For Cc1cnc2c(c1)S(=O)(=O)N(Cc1cc(C(c3ccc4c(nnn4C4CC4)c3C)C(C)(C)C(=O)O)cnc1C)CC1(CC1)O2 (stereo not given), the Kd was < 1 nM. In the case of Cc1ccc(C(CC(=O)O)c2ccn3c(C(F)(F)F)nnc3c2C)cc1CN1C[C@H]2CCCCN2c2ncccc2S1(=O)=O (stereo not given in full), the Kd is reported as < 1 nM. With Cc1cnc2c(c1)S(=O)(=O)N(Cc1cc([C@H](c3ccc4c(nnn4C4CC4)c3C)C(C)(C)C(=O)O)cnc1C)CC1(CCOCC1)O2 the Kd was < 1 nM. In the case of Cc1ccc([C@@H](c2ccn3c(C(F)(F)F)nnc3c2C)C(C)(C)C(=O)O)cc1CN1CC2(CC2)Oc2nc(OCCN3CCCCC3)ccc2S1(=O)=O, the Kd is reported as < 1 nM. With COc1ccc2c(n1)OC1(CCOCC1)CN(Cc1cc([C@@H](c3ccn4c(C(F)F)nnc4c3C)C(C)(C)C(=O)O)ccc1C)S2(=O)=O the Kd was < 1 nM. With CC[C@@H]1CN(Cc2nc([C@H](CC(=O)O)c3ccc4c(nnn4C4CC4)c3C)ccc2C)S(=O)(=O)c2cccnc2O1 the Kd was < 1 nM. For Cc1ccc([C@H](CC(=O)O)c2ccc3c(nnn3CC3CC3)c2C)cc1CN1C[C@H]2CCCCN2c2ncccc2S1(=O)=O, the Kd was < 1 nM. For CCn1nnc2c(C)c([C@H](CC(=O)O)c3ccc(C)c(CN4CC5(COC5)Oc5ccccc5S4(=O)=O)n3)ccc21, the Kd was < 1 nM. In the case of Cc1ccc([C@H](CC(=O)O)c2ccn3c(C(F)(F)F)nnc3c2C)nc1CN1C[C@H]2CCCCN2c2ncc(C#N)cc2S1(=O)=O, the Kd is reported as < 1 nM. In the case of Cc1ccc(C(CC(=O)O)c2ccc3c(nnn3C3CC3)c2C)cc1CN1C[C@H]2CCCN2c2ncccc2S1(=O)=O (stereo not given in full), the Kd is reported as < 1 nM.
